Assays:
Assay type in all cases: cell-based
[1] = MTT assay, HEL299 fibroblast; conditions: human
Excerpt: (§1) Please refer to FIG. 4C, various cell viabilities of the HEL299 cell lines can be obtained through the MTT assay while the compounds No. 1˜30 are used to treat HEL299 cell lines, wherein HEL299 cell lines are fibroblast.

HEL299 fibroblast = experiment: MTT assay, HEL299 fibroblast
Excerpt: as §1

A control cell lines = experiment: MTT assay, A control cell lines (lung cancer cell)
Excerpt: Please refer to Table 1 and FIGS. 4A-4C. According to a MTT assay (Table 1), various cell viabilities of the A control cell lines can be obtained and illustrated in FIG. 4A while the compounds No. 2˜30 are used to treat A control cell lines, wherein A control cell lines are lung cancer cell.

A3 cell lines = experiment: MTT assay, A3 cell lines (lung cancer stem cell)
Excerpt: Please to FIG. 4B, various cell viabilities of the A3 cell lines can be obtained through the MTT assay and illustrated in FIG. 4B while the compounds No. 1˜30 are used to treat A3 cell lines, wherein A3 cell lines are lung cancer stem cell.

## Cc1ccc(Sc2ccc3c(=O)c4ccccc4sc3c2Cl)c(C)c1 [No. 10, 4-Chloro-3-(2,4-dimethylphenylthio)-9H-thioxanthen-9-one]
[1]
  viability: 108%
HEL299 fibroblast
  cytotoxicity effect on the normal fibroblast (in words): without the cytotoxicity effect
A control cell lines
  cell viabilities of A control cell lines (MTT assay): 104 ± 11.0%
A3 cell lines
  cell viabilities of A3 cell lines (MTT assay): 59.9%
A3 cell lines; summary of MTT cell viabilities
  inhibition effect on A3 cell line (in words): inhibition effect
